Results from patent publication US20260274814A1, “THIENYL COMPOUNDS FOR THE TREATMENT OF A CENTRAL NERVOUS SYSTEM DISEASE OR DISORDER” (Coreterra Therapeutics, Inc., priority 2023, published 2026).
Where a name gives a salt, the structure may show the parent alone.

System: mice
Experiment: Neuropharmacological Assay (SmartCube): automated behavioral signature of compound-treated mice compared with a database of reference drug classes
Format: in vivo
Conditions: for AG / AP / AX / CE / HL / MS / SH / UK / AD / AN / PS: SmartCube class probability, 3.0 mg/kg i.p., 15 min before test; for MED / minimal effective dose: minimal effective dose: dose having 45% or more total activity in SmartCube, i.p., if only one dose tested, that dose is shown; for minimal effective dose: Mus musculus, ip, read-out: MED
Procedure, shortened: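 Probabilities reflect how closely the digitally recorded behavioural signature at 3.0 mg/kg i.p. matched each reference class (antipsychotic, anxiolytic, antidepressant etc.). Dosing occurred 15 min before testing. Minimal effective dose was the dose giving 45% or more total activity.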

With `CNC1(C)CCc2sccc2C1` (single isomer, unassigned) [Compound 179, N, 5-dimethyl-6,7-dihydro-4H-benzothiophen-5-amine hydrochloride] the AG was “ND (^ <4%)”, the AP was “ND (^ <4%)” and the AX was “ND (^ <4%)”. The CE was “ND (^ <4%)”, the HL was “ND (^ <4%)” and the MS was “ND (^ <4%)”. For the same molecule, the SH was “ND (^ <4%)”, the UK was “ND (^ <4%)” and the AD (hydrochloride, 3 mg/kg) was “+++ (≥49%)”. For the same molecule, the AN (hydrochloride, 3 mg/kg) was “+ (≥4%)”, the PS (hydrochloride, 3 mg/kg) was “+ (≥4%)” and the MED (hydrochloride) was 3 mpk.

In the case of `CNC1CCc2sc(C3CC3)cc2C1` (single isomer, unassigned) [Compound 183, 2-cyclopropyl-N-methyl-4,5,6,7-tetrahydrobenzothiophen-5-amine hydrochloride], the minimal effective dose is reported as 3 mg/kg, the AD is reported as “ND (^ <4%)” and the AG is reported as “ND (^ <4%)”. The AN was “ND (^ <4%)”, the AP was “ND (^ <4%)” and the AX was “ND (^ <4%)”. The CE was “ND (^ <4%)”, the HL was “ND (^ <4%)” and the MS was “ND (^ <4%)”. For the same molecule, the PS was “ND (^ <4%)”, the SH was “ND (^ <4%)” and the UK was “++ (≥24%)”.

With `CNC1CCc2sc(C3CC3)cc2C1` (single isomer, unassigned) [Compound 184, 2-cyclopropyl-N-methyl-4,5,6,7-tetrahydrobenzothiophen-5-amine hydrochloride] the AD was “ND (^ <4%)”, the AG was “ND (^ <4%)” and the AN was “ND (^ <4%)”. For the same molecule, the AP was “ND (^ <4%)”, the AX was “ND (^ <4%)” and the CE was “ND (^ <4%)”. The HL was “ND (^ <4%)”, the MS was “ND (^ <4%)” and the PS was “ND (^ <4%)”. The SH was “ND (^ <4%)”, the UK was “++ (≥24%)” and the MED (hydrochloride) was over 3 mpk.

For `NC1CCc2scc(F)c2C1` (single isomer, unassigned) [Compound 191, 3-fluoro-4,5,6,7-tetrahydrobenzothiophen-5-amine hydrochloride], the AX was “ND (^ <4%)”, the HL was “ND (^ <4%)” and the MS was “ND (^ <4%)”. The SH was “ND (^ <4%)”, the AD (hydrochloride, 3 mg/kg) was “++ (≥24%)” and the AG (hydrochloride, 3 mg/kg) was “+ (≥4%)”. For the same molecule, the AN (hydrochloride, 3 mg/kg) was “+ (≥4%)”, the AP (hydrochloride, 3 mg/kg) was “+ (≥4%)” and the CE (hydrochloride, 3 mg/kg) was “+ (≥4%)”. For the same molecule, the PS (hydrochloride, 3 mg/kg) was “+ (≥4%)”, the UK (hydrochloride, 3 mg/kg) was “ND (^ <4%)” and the MED (hydrochloride) was 1 mpk.

In the case of `NC1CCc2scc(F)c2C1` (single isomer, unassigned) [Compound 192, 3-fluoro-4,5,6,7-tetrahydrobenzothiophen-5-amine hydrochloride], the AX is reported as “ND (^ <4%)”, the HL is reported as “ND (^ <4%)” and the MS is reported as “ND (^ <4%)”. For the same molecule, the SH was “ND (^ <4%)”, the AD (hydrochloride, 3 mg/kg) was “ND (^ <4%)” and the AG (hydrochloride, 3 mg/kg) was “ND (^ <4%)”. For the same molecule, the AN (hydrochloride, 3 mg/kg) was “ND (^ <4%)”, the AP (hydrochloride, 3 mg/kg) was “ND (^ <4%)” and the CE (hydrochloride, 3 mg/kg) was “ND (^ <4%)”. The PS (hydrochloride, 3 mg/kg) was “ND (^ <4%)”, the UK (hydrochloride, 3 mg/kg) was “+++ (≥49%)” and the MED (hydrochloride) was 3 mpk.

In the case of `CNC1CCc2scc(C(F)(F)F)c2C1.Cl` (single isomer, unassigned) [Compound 194, N-methyl-3-(trifluoromethyl)-4,5,6,7-tetrahydrobenzothiophen-5-amine hydrochloride], the minimal effective dose is reported as 3 mg/kg, the AD is reported as “ND (^ <4%)” and the AG is reported as “ND (^ <4%)”. The AN was “ND (^ <4%)”, the AX was “ND (^ <4%)” and the CE was “ND (^ <4%)”. The HL was “ND (^ <4%)”, the MS was “ND (^ <4%)” and the PS was “ND (^ <4%)”. The SH was “ND (^ <4%)”, the AP (hydrochloride, 3 mg/kg) was “++++ (≥74%)” and the UK (hydrochloride, 3 mg/kg) was “ND (^ <4%)”.

With `CNC1CCc2scc(C(F)(F)F)c2C1.Cl` (single isomer, unassigned) [Compound 195, N-methyl-3-(trifluoromethyl)-4,5,6,7-tetrahydrobenzothiophen-5-amine hydrochloride] the AD was “ND (^ <4%)”, the AG was “ND (^ <4%)” and the AN was “ND (^ <4%)”. For the same molecule, the AX was “ND (^ <4%)”, the CE was “ND (^ <4%)” and the HL was “ND (^ <4%)”. For the same molecule, the MS was “ND (^ <4%)”, the PS was “ND (^ <4%)” and the SH was “ND (^ <4%)”. The AP (hydrochloride, 3 mg/kg) was “ND (^ <4%)”, the UK (hydrochloride, 3 mg/kg) was “+ (≥4%)” and the MED (hydrochloride) was over 3 mpk.

In the case of `CNC1CCc2c(Cl)csc2C1` (single isomer, unassigned) [Compound 198, 3-chloro-N-methyl-4,5,6,7-tetrahydrobenzothiophen-6-amine hydrochloride], the minimal effective dose is reported as under 3 mg/kg, the AD is reported as “ND (^ <4%)” and the AG is reported as “ND (^ <4%)”. For the same molecule, the AN was “ND (^ <4%)”, the AX was “ND (^ <4%)” and the CE was “ND (^ <4%)”. For the same molecule, the MS was “ND (^ <4%)”, the PS was “ND (^ <4%)” and the SH was “ND (^ <4%)”. The UK was “ND (^ <4%)”, the AP (hydrochloride, 3 mg/kg) was “++++ (≥74%)” and the HL (hydrochloride, 3 mg/kg) was “ND (^ <4%)”.

For `CNC1CCc2c(Cl)csc2C1` (single isomer, unassigned) [Compound 199, 3-chloro-N-methyl-4,5,6,7-tetrahydrobenzothiophen-6-amine hydrochloride], the AD was “ND (^ <4%)”, the AG was “ND (^ <4%)” and the AN was “ND (^ <4%)”. For the same molecule, the AX was “ND (^ <4%)”, the CE was “ND (^ <4%)” and the MS was “ND (^ <4%)”. The PS was “ND (^ <4%)”, the SH was “ND (^ <4%)” and the UK was “ND (^ <4%)”. The AP (hydrochloride, 3 mg/kg) was “ND (^ <4%)”, the HL (hydrochloride, 3 mg/kg) was “+ (≥4%)” and the MED was under 3 mpk.

`CNC1CCc2c(F)sc(C)c2C1` (single isomer, unassigned) [Compound 210, 1-fluoro-N, 3-dimethyl-4,5,6,7-tetrahydro-2-benzothiophen-5-amine hydrochloride] was tested, and the minimal effective dose was 3 mg/kg, the AD was “ND (^ <4%)” and the AG was “ND (^ <4%)”. For the same molecule, the AN was “ND (^ <4%)”, the AX was “ND (^ <4%)” and the CE was “ND (^ <4%)”. The HL was “ND (^ <4%)”, the MS was “ND (^ <4%)” and the PS was “ND (^ <4%)”. The SH was “ND (^ <4%)”, the AP (hydrochloride, 3 mg/kg) was “+ (≥4%)” and the UK (hydrochloride, 3 mg/kg) was “+++ (≥49%)”.

`CNC1CCc2c(F)sc(C)c2C1` (single isomer, unassigned) [Compound 211, 1-fluoro-N, 3-dimethyl-4,5,6,7-tetrahydro-2-benzothiophen-5-amine hydrochloride] was tested, and the AD was “ND (^ <4%)”, the AG was “ND (^ <4%)” and the AN was “ND (^ <4%)”. The AX was “ND (^ <4%)”, the CE was “ND (^ <4%)” and the HL was “ND (^ <4%)”. For the same molecule, the MS was “ND (^ <4%)”, the PS was “ND (^ <4%)” and the SH was “ND (^ <4%)”. For the same molecule, the AP (hydrochloride, 3 mg/kg) was “++++ (≥74%)”, the UK (hydrochloride, 3 mg/kg) was “ND (^ <4%)” and the MED (hydrochloride) was under 3 mpk.

In the case of `NC1CCc2sccc2C1` (single isomer, unassigned) [Compound 212, 4,5,6,7-tetrahydrobenzothiophen-5-amine hydrochloride], the minimal effective dose is reported as 1 mg/kg, the AG is reported as “ND (^ <4%)” and the AN is reported as “ND (^ <4%)”. The AP was “+ (≥4%)”, the HL was “ND (^ <4%)” and the MS was “ND (^ <4%)”. The PS was “ND (^ <4%)”, the UK was “ND (^ <4%)” and the AD (hydrochloride, 3 mg/kg) was “+++ (≥49%)”. For the same molecule, the AX (hydrochloride, 3 mg/kg) was “+ (≥4%)”, the CE (hydrochloride, 3 mg/kg) was “+ (≥4%)” and the SH (hydrochloride, 3 mg/kg) was “ND (^ <4%)”.

With `NC1CCc2sccc2C1` (single isomer, unassigned) [Compound 213, 4,5,6,7-tetrahydrobenzothiophen-5-amine hydrochloride] the AG was “ND (^ <4%)”, the AN was “ND (^ <4%)” and the AP was “+ (≥4%)”. For the same molecule, the HL was “ND (^ <4%)”, the MS was “ND (^ <4%)” and the PS was “ND (^ <4%)”. For the same molecule, the UK was “ND (^ <4%)”, the AD (hydrochloride, 3 mg/kg) was “+ (≥4%)” and the AX (hydrochloride, 3 mg/kg) was “+++ (≥49%)”. For the same molecule, the CE (hydrochloride, 3 mg/kg) was “ND (^ <4%)”, the SH (hydrochloride, 3 mg/kg) was “+ (≥4%)” and the MED was 1 mpk.

For `CNC1CCc2sc(C)cc2C1` (single isomer, unassigned) [Compound 223, N, 2-dimethyl-4,5,6,7-tetrahydrobenzothiophen-5-amine hydrochloride], the minimal effective dose was over 3 mg/kg, the AD was “ND (^ <4%)” and the AG was “ND (^ <4%)”. The AN was “ND (^ <4%)”, the AX was “ND (^ <4%)” and the CE was “ND (^ <4%)”. The HL was “ND (^ <4%)”, the MS was “ND (^ <4%)” and the PS was “ND (^ <4%)”. The SH was “ND (^ <4%)”, the AP (hydrochloride, 3 mg/kg) was “ND (^ <4%)” and the UK (hydrochloride, 3 mg/kg) was “++ (≥24%)”.

With `CNC1CCc2sc(C)cc2C1` (single isomer, unassigned) [Compound 224, N, 2-dimethyl-4,5,6,7-tetrahydrobenzothiophen-5-amine hydrochloride] the AD was “ND (^ <4%)”, the AG was “ND (^ <4%)” and the AN was “ND (^ <4%)”. For the same molecule, the AX was “ND (^ <4%)”, the CE was “ND (^ <4%)” and the HL was “ND (^ <4%)”. For the same molecule, the MS was “ND (^ <4%)”, the PS was “ND (^ <4%)” and the SH was “ND (^ <4%)”. For the same molecule, the AP (hydrochloride, 3 mg/kg) was “++++ (≥74%)”, the UK (hydrochloride, 3 mg/kg) was “ND (^ <4%)” and the MED (hydrochloride) was 3 mpk.

`CNC1CCc2c(C(F)(F)F)csc2C1` (single isomer, unassigned) [Compound 230, N-methyl-3-(trifluoromethyl)-4,5,6,7-tetrahydrobenzothiophen-6-amine hydrochloride] was tested, and the minimal effective dose was 3 mg/kg, the AG was “ND (^ <4%)” and the AN was “ND (^ <4%)”. The AP was “ND (^ <4%)”, the AX was “ND (^ <4%)” and the CE was “ND (^ <4%)”. For the same molecule, the HL was “ND (^ <4%)”, the MS was “ND (^ <4%)” and the PS was “ND (^ <4%)”. For the same molecule, the SH was “ND (^ <4%)”, the AD (hydrochloride, 3 mg/kg) was “+ (≥4%)” and the UK (hydrochloride, 3 mg/kg) was “ND (^ <4%)”.
